Data published in US20240376154A1, “BIS-INTERCALATING PEPTIDES, CONJUGATES AND METHODS OF USE” (ZYMEWORKS BC INC., priority 2023, published 2024).

Key:
[1] = test system: tumour cells (at least 4 of a panel of ovarian, breast, lung, pancreatic, placenta, colon cell lines); assay: In vitro cytotoxicity (cell proliferation, CellTiter-Glo), average over tumour cell line panel; assay type: cell-based; settings: average pIC50 on all cell lines tested; 5 nights incubation; CellTiter-Glo
Summary of the method: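 Each cell line seeded at ~1000 cells/well and left to adhere overnight, then given a 10-point 1:3 compound titration for 5 nights at 37° C, 5% CO2. Viability read by CellTiter-Glo luminescence; IC50 per line, reported as pIC50 averaged across at least 4 lines.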

herring sperm DNA = assay: DNA melting temperature by differential scanning calorimetry (DSC); assay type: binding; settings: for DNA melt (° C.): DSC, herring sperm DNA, DNA melting temperature = 68° C.
Experimental: Representative compounds prepared as described in Example 2 were assessed in two complementary DNA-binding assays. Increased melting temperature of herring sperm DNA was measured using differential scanning calorimetry (DSC) and binding kinetics were determined by surface plasmon resonance (SPR) using a short DNA hairpin sequence.
DSC experiments were conducted as described in Leng, 2003, Nucleic Acids Res., 31 (21): […], using a Nano DSC (TA Instruments, New Castle, DE) and analyzed using the NanoAnalyze™ software package. Herring sperm DNA solution (Invitrogen 15634017, 10 mg/mL) was diluted to 1 mg/mL (1.4 mM base pair) in BPE buffer (6 mM Na2HPO4, 2 mM NaH2PO4, 1 mM Na4EDTA, pH 7.0). Test articles (20 μL, 10 mM in DMSO) were added and allowed reach equilibrium binding (>3 h), any insoluble material was removed by low-speed centrifugation, then samples were heated from 25 to 110° C. at a scan rate of 1° C./min. Melting curves were plotted and melting temperature was determined using NanoAnalyze™.

[2] = Lipophilicity by experimental HPLC retention time; assay type: physicochemical; settings: HPLC retention time as measure of lipophilicity; C18, 10 to 90% CH3CN/H2O with 0.1% FA over 25 min
Summary of the method: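 Reversed-phase HPLC with diode array detection on a Kinetex EVO C18 150×4.6, 2.6 μm column. Gradient 10 to 90% CH3CN/H2O with 0.1% FA over 25 min; retention time serves as the lipophilicity measure.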

[3] = Stability in female mouse plasma; assay type: in vitro ADME; settings: 37° C., 24 h; for half-life at 1 μM: female, mouse, plasma; for plasma stability (in words): 1 μM
Experimental: The stability of exemplary compounds of general Formula I in mouse plasma was evaluated as follows.
Compounds were incubated at 1 μM in duplicate in female mouse plasma, 250 μL final volume, at 37° C. for 24 h. Aliquots were sampled at 0, 15, 30, 60, 120, 240, 480 and 1440 min. Proteins were precipitated by addition of 5 volumes of cold methanol. After centrifugation 10000×g for 10 min, the residual concentration of compound in the supernatant was measured using an appropriate LC-MS/MS method. The measured concentrations were expressed as a function of time through a one-phase decay exponential regression calculated using GraphPad Prism software (GraphPad Software, Inc.) to generate the plasma half-life for each compound.

Row | Compound | pIC50 (average) [1] | DNA melt (° C.) (herring sperm DNA) | HPLC [2] [min] | half-life at 1 μM [3] [h] | plasma stability (in words) [3] | DNA binding (in words) (herring sperm DNA; only DSC data in Table 7.1)
1 | CC(C)[C@H]1C(=O)NC[C@@H](NC(=O)c2nc3ccccc3cc2O)C(=O)N2CCCC[C@H]2C(=O)NCC(=O)N(C)CC(=O)N(C)[C@@H](C(C)C)C(=O)OC[C@@H](NC(=O)c2nc3ccccc3cc2O)C(=O)N2CCCC[C@H]2C(=O)NCC(=O)N(C)CC(=O)N1C [Compound 14, N,N′-((7R,11S,19aS,26R,30S,38aS)-11,30-diisopropyl-12,15,31,34-tetramethyl-6,10,13,16,19,25,29,32,35,38-decaoxotetratriacontahydro-2H,6H,10H-dipyrido[2,1-b1: 2′,1′-l][1]oxa[4,7,10,13,17,20,23,26,29]nonaazacyclodotriacontine-7,26-diyl)bis(3-hydroxyquinoline-2-carboxamide)] | 8.5 | 97 °C | 19.6 | 12.3 | – | –
2 | CCN1CC(=O)N(C)[C@@H](C(C)C)C(=O)NC[C@@H](NC(=O)c2nc3ccccc3cc2O)C(=O)N2CCCC[C@H]2C(=O)NCC(=O)N(CC)CC(=O)N(C)[C@@H](C(C)C)C(=O)NC[C@@H](NC(=O)c2nc3ccccc3cc2O)C(=O)N2CCCC[C@H]2C(=O)NCC1=O [Compound 132, N,N′-((7R,11S,19aS,26R,30S,38aS)-15,34-diethyl-11,30-diisopropyl-12,31-dimethyl-6,10,13,16,19,25,29,32,35,38-decaoxohexatriacontahydro-2H,6H-dipyrido[1,2-a:1′,2′-q][1,4,7,10,13,17,20,23,26,29]decaazacyclodotriacontine-7,26-diyl)bis(3-hydroxyquinoline-2-carboxamide)] | 8.6 | – | 18.5 | – | stability over the course of the experiment | –
3 | CC[C@H](C)[C@H]1C(=O)NC[C@@H](NC(=O)c2nc3ccccc3cc2O)C(=O)N2CCCC[C@H]2C(=O)NCC(=O)N(C)CC(=O)N(C)[C@@H]([C@@H](C)CC)C(=O)NC[C@@H](NC(=O)c2nc3ccccc3cc2O)C(=O)N2CCCC[C@H]2C(=O)NCC(=O)N(C)CC(=O)N1C [Compound 67, N,N′-((7R,11S,19aS,26R,30S,38aS)-11,30-di((S)-sec-butyl)-12,15,31,34-tetramethyl-6,10,13,16,19,25,29,32,35,38-decaoxohexatriacontahydro-2H,6H-dipyrido[1,2-a:1′,2′-q][1,4,7,10,13,17,20,23,26,29]decaazacyclodotriacontine-7,26-diyl)bis(3-hydroxyquinoline-2-carboxamide)] | 8.6 | 91 °C | 18.8 | – | stability over the course of the experiment | –
4 | CCOC(=O)[C@H](CCc1ccccc1)N[C@@H](C)C(=O)N1CCC[C@H]1C(=O)O [Enalapril, reference compound] | – | – | – | 2.7 | – | –
5 | CC(C)[C@H]1COC[C@@H](NC(=O)c2nc3ccccc3cc2O)C(=O)N2CCCC[C@H]2C(=O)NCC(=O)N(C)CC(=O)N(C)[C@@H](C(C)C)C(=O)NC[C@@H](NC(=O)c2nc3ccccc3cc2O)C(=O)N2CCCC[C@H]2C(=O)NCC(=O)N(C)CC(=O)N1C [Compound 178, N,N′-((7R,11S,19aS,26R,30S,38aS)-11,30-diisopropyl-12,15,31,34-tetramethyl-6,13,16,19,25,29,32,35,38-nonaoxotetratriacontahydro-2H,6H,10H-dipyrido[2,1-b1: 2′,1′-l][1]oxa[4,7,10,13,17,20,23,26,29]nonaazacyclodotriacontine-7,26-diyl)bis(3-hydroxyquinoline-2-carboxamide)] | 8.1 | 92 °C | 18.4 | – | stability over the course of the experiment | –
6 | CN1CC(=O)N2CCCC[C@H]2COC[C@@H](NC(=O)c2nc3ccccc3cc2O)C(=O)N2CCCC[C@H]2C(=O)NCC(=O)N(C)CC(=O)N2CCCC[C@H]2C(=O)NC[C@@H](NC(=O)c2nc3ccccc3cc2O)C(=O)N2CCCC[C@H]2C(=O)NCC1=O [Compound 187, N,N′-((7R,10aS,22aS,29R,32aS,44aS)-18,40-dimethyl-6,16,19,22,28,32,38,41,44-nonaoxodotetracontahydro-6H-tetrapyrido[2,1-b1: 2′,1′-c: 2″,1″-1:2′″,1′″-s][1]oxa[4,7,10,13,17,20,23,26,29]nonaazacyclodotriacontine-7,29-diyl)bis(3-hydroxyquinoline-2-carboxamide)] | 8.0 | 94 °C | 16.6 | – | – | –
7 | CC(C)[C@H]1C(=O)NC[C@@H](NC(=O)c2nc3ccccc3cc2O)C(=O)N2CCCC[C@H]2C(=O)NCCOCC(=O)N(C)[C@@H](C(C)C)C(=O)NC[C@@H](NC(=O)c2nc3ccccc3cc2O)C(=O)N2CCCC[C@H]2C(=O)NCCOCC(=O)N1C [Compound 404, N,N′-((7R,11S,19aS,26R,30S,38aS)-11,30-diisopropyl-12,31-dimethyl-6,10,13,19,25,29,32,38-octaoxodotriacontahydro-2H,6H,16H,25H-dipyrido[1,2-a1: 1′,2′-k][1,17]dioxa[4,7,11,14,20,23,27,30]octaazacyclodotriacontine-7,26-diyl)bis(3-hydroxyquinoline-2-carboxamide)] | Inactive | 68^1 °C | 16.0 | – | – | did not demonstrate measurable DNA binding
8 | CC(C)[C@H]1C(=O)O[C@H](C)[C@@H](NC(=O)c2nc3ccccc3cc2O)C(=O)N2CCCC[C@H]2C(=O)NCC(=O)N(C)CC(=O)N(C)[C@@H](C(C)C)C(=O)O[C@H](C)[C@@H](NC(=O)c2nc3ccccc3cc2O)C(=O)N2CCCC[C@H]2C(=O)NCC(=O)N(C)CC(=O)N1C [Compound 22, N,N′-((7R,8R,11S,19aS,26R,27R,30S,38aS)-11,30-diisopropyl-8,12,15,27,31,34-hexamethyl-6,10,13,16,19,25,29,32,35,38-decaoxodotriacontahydro-2H,6H,10H,25H-dipyrido[2,1-b1: 2′,1′-l][1,17]dioxa[4,7,10,13,20,23,26,29]octaazacyclodotriacontine-7,26-diyl)bis(3-hydroxyquinoline-2-carboxamide)] | 7.6 | 85 °C | 21.6 | – | – | –
9 | CC[C@H](C)[C@H]1C(=O)NC[C@@H](NC(=O)c2nc3ccccc3cc2O)C(=O)N2CCCC[C@H]2C(=O)NCC(=O)N(C)CC(=O)N(C)[C@@H](C(C)C)C(=O)NC[C@@H](NC(=O)c2nc3ccccc3cc2O)C(=O)N2CCCC[C@H]2C(=O)NCC(=O)N(C)CC(=O)N1C [Compound 72] | 7.6 | 89 °C | 18.0 | – | – | –
10 | CN1CC(=O)N2CCCC[C@H]2C(=O)NC[C@@H](NC(=O)c2nc3ccccc3cc2O)C(=O)N2CCCC[C@H]2C(=O)NCC(=O)N(C)CC(=O)N2CCCC[C@H]2C(=O)NC[C@@H](NC(=O)c2nc3ccccc3cc2O)C(=O)N2CCCC[C@H]2C(=O)NCC1=O [Compound 49, N,N′-((7R,10aS,22aS,29R,32aS,44aS)-18,40-dimethyl-6,10,16,19,22,28,32,38,41,44-decaoxotetratetracontahydrotetrapyrido[1,2-a:1′,2′-j:1″,2″-q:1″,2′″-z][1,4,7,10,13,17,20,23,26,29]decaazacyclodotriacontine-7,29-diyl)bis(3-hydroxyquinoline-2-carboxamide)] | 7.2 | 97 °C | 15.7 | – | – | –
